In US20240009174A1, “METHODS FOR DISRUPTING MITOCHONDRIAL UNFOLDED PROTEIN RESPONSE” (Health Research, Inc., priority 2020, published 2024):

How the values were obtained:
LNCaP and PC-3 cells = experiment: Mitochondrial membrane potential (mitoMP); assay type: cell-based
Experimental: FIG. 7. Pharmacological inhibition of HSP60-ClpP interaction induces metabolic stress in PCa cells. (A) LNCaP and PC-3 cells were pre-treated with either rotenone or antimycin-A followed by DCEM1 treatment and mitochondrial ROS was analyzed as described in material and methods (data represented as fold change compared to control). In (A), the bars in each series from left to right are control, DCEM1, Rot+DCEM1, Anti A+DCEM1, Rot, and Anti A (B) ClpP protein was over-expressed in LNCaP and PC-3 cells followed by DCEM1 treatment and mitochondrial ROS was analyzed as described in material and methods (Data represented as fold change compared to control). […] (C) ClpP protein was over-expressed in LNCaP and PC-3 cells followed by DCEM1 treatment and level of poly-ubiquitinated protein was analyzed by western blotting. (D) ClpP protein was over-expressed in LNCaP and PC-3 cells followed by DCEM1 treatment and DEVDase activity was analyzed as described in material and methods (Data represented as fold change compared to control). […] (E) Mitochondrial membrane potential (mitoMP) was analyzed in LNCaP and PC-3 cells treated with DCEM1 as described in material and methods (Data represented as fold change compared to control). […] (F) ATP level was analyzed in LNCaP and PC-3 cells treated with DCEM1 as described in material and methods (Data represented as fold change compared to control). […]

[1] = system: HSP60, HSP10, ClpP and LONP1; experiment: Expression of UPRmt components after DCEM1; assay type: cell-based; conditions: PCa cells
[2] = system: mitochondrial chaperonin activity in PCa cells; experiment: Mitochondrial Chaperonin Activity Assay (MiCAA); assay type: cell-based; conditions: 24 h
Experimental: FIG. 10. Mitochondrial Chaperonin Activity Assay (MiCAA). PCa cells were treated with either DCEM1 (A) or ETB or Mizoribine (B) for 24 h and mitochondrial (Mito) chaperonin activity was analyzed as described in material and methods. In another experiment, PCa cells were transfected with siRNA to target HSP60 mRNA and mitochondrial chaperonin activity was analyzed (C). In (A), the bars in each series from left to right are DMSO and DCEM1. In (B), the bars in each series from left to right are DMSO, ETB, and MZR. In (C), the bars in each series from left to right are siMock, siHSP60-1, and siHSP60-2.
Since HSP60 chaperonin system is crucial for maintaining mitochondrial homeostasis in normal cells, a novel method, Mitochondrial Chaperonin Activity Assay (MiCAA), was developed to analyze chaperonin activity in live cells using flow cytometry to evaluate whether DCEM1 modulates mitochondrial chaperonin activity.

TKO PCa cells = experiment: mitoROS, mitoMass and apoptosis in TKO PCa cells; assay type: cell-based, mouse; conditions: data not shown
Experimental: Identification of novel inhibitor of HSP60-ClpP interaction that disrupts UPR^mt function and induces PCa cell death. Having shown that two arms of UPR^mt, HSP60 chaperonin and ClpP protease interact and play critical role in PCa cell survival, an in silico analysis was performed and a small molecule library (developed by Enamine Ltd) was screened to identify drugs targeting the apical domain of HSP60 critical for its interaction with ClpP. 9 compounds (A-I) were identified and screened for their cell death inducing potential in PCa cells (data not shown). […] Colony forming ability of PCa cells was inhibited by DCEM1 treatment (data not shown).

PC-3 cells = experiment: Oxygen consumption rate (OCR); assay type: cell-based; conditions: DCEM1 100 nM, 500 nM, 1 μM, 5 μM

With `CCOc1cc(CNCc2nc3ccccc3[nH]2)ccc1OCc1cccs1` [DCEM1] the mitochondrial membrane potential (LNCaP and PC-3 cells) was “robustly depolarized mitochondrial membrane”, the “expression of UPRmt components HSP60, HSP10, ClpP and LONP1” value [1] was “failed to alter” and the mitochondrial chaperonin activity [2] was “did not modulate”. For the same molecule, the “mitoROS and mitoMass in TKO PCa cells” value (TKO PCa cells; cells established from TKO mouse prostate tumor tissue) was “induced mitoROS and mitoMass”, the “apoptotic cell death in TKO PCa cells” value (TKO PCa cells) was “induced robust apoptotic cell death” and the “oxygen consumption rate (OCR)” value (PC-3 cells) was “reduction in oxygen consumption rate”.
